Laboratory results taken from PMC10976393 (2024).

What was measured:
[1] = system: Quadruplet G (DNA, aptamer) CCTGGGGGGGGGAGTATTGCGGGGAGGGGAAGG; experiment: label-free ThT fluorescence increase, single-site fit; settings: 100 mM KCl; 50 mM Tris pH 7.5; ThT 0.5 μM present; slow annealing with ATP; apparent
[2] = system: FAM-ATP Aptamer (DNA, aptamer) TTCCTGGGGGAGTATTGCGGAGGAAGG; experiment: FAM fluorescence increase, single-site fit; settings: 100 mM KCl; 50 mM Tris pH 7.5; slow annealing with ATP 0-10 μM; 0.50 μM aptamer
[3] = system: Quadruplet G (DNA, aptamer) CCTGGGGGGGGGAGTATTGCGGGGAGGGGAAGG; experiment: HPLC-ESI-MS; settings: 1 mM KCl, 100 mM TEAAc (annealed in 50 mM KCl)
[4] = system: FAM-Triplet G (DNA, aptamer) TTCCTGGGGGGGAGTATTGCGGGAGGGAAGG; experiment: FAM fluorescence increase, single-site fit; settings: 100 mM KCl; 50 mM Tris pH 7.5; slow annealing with ATP 0-10 μM; 0.50 μM aptamer
[5] = system: ATP Aptamer (DNA, aptamer) CCTGGGGGAGTATTGCGGAGGAAGG; experiment: label-free ThT fluorescence increase, single-site fit; settings: 100 mM KCl; 50 mM Tris pH 7.5; ThT 0.5 μM present; slow annealing with ATP; apparent
[6] = system: ATP Aptamer-FAM (DNA, aptamer) TTCCTGGGGGAGTATTGCGGAGGAAGG; experiment: FAM fluorescence increase, single-site fit; settings: 100 mM KCl; 50 mM Tris pH 7.5; slow annealing with ATP 0-10 μM; 0.50 μM aptamer
[7] = system: FAM-Quadruplet G (DNA, aptamer) TTCCTGGGGGGGGGAGTATTGCGGGGAGGGGAAGG; experiment: FAM fluorescence increase, single-site fit; settings: 100 mM KCl; 50 mM Tris pH 7.5; slow annealing with ATP 0-10 μM; 0.50 μM aptamer
[8] = system: Triplet G (DNA, aptamer) CCTGGGGGGGAGTATTGCGGGAGGGAAGG; experiment: HPLC-ESI-MS; settings: 1 mM KCl, 100 mM TEAAc (annealed in 50 mM KCl)
[9] = system: ATP Aptamer (DNA, aptamer) CCTGGGGGAGTATTGCGGAGGAAGG; experiment: HPLC-ESI-MS; settings: 1 mM KCl, 100 mM TEAAc (annealed in 50 mM KCl)
[10] = system: Scrambled Aptamer (DNA, single strand) GTGCGCGAGTGTGAGCGAGAGTGAG; experiment: label-free ThT fluorescence; settings: 100 mM KCl; 50 mM Tris pH 7.5; ThT present; slow annealing with ATP
[11] = system: GAT (DNA, single strand) GATAGCGTCACTCGATCT; experiment: label-free ThT fluorescence; settings: 100 mM KCl; 50 mM Tris pH 7.5; ThT present; slow annealing with ATP
[12] = system: Triplet G (DNA, aptamer) CCTGGGGGGGAGTATTGCGGGAGGGAAGG; experiment: label-free ThT fluorescence increase, single-site fit; settings: 100 mM KCl; 50 mM Tris pH 7.5; ThT 0.5 μM present; slow annealing with ATP; apparent
[13] = system: Triplet G (DNA, aptamer) CCTGGGGGGGAGTATTGCGGGAGGGAAGG; experiment: ThT fluorescence light-up; settings: 100 mM KCl; 50 mM Tris pH 7.5; 3- to 4-fold increase over non-G4 controls
[14] = system: ATP Aptamer (DNA, aptamer) CCTGGGGGAGTATTGCGGAGGAAGG; experiment: ThT fluorescence light-up; settings: 100 mM KCl; 50 mM Tris pH 7.5; 3- to 4-fold increase over non-G4 controls
[15] = system: Quadruplet G (DNA, aptamer) CCTGGGGGGGGGAGTATTGCGGGGAGGGGAAGG; experiment: ThT fluorescence light-up; settings: 100 mM KCl; 50 mM Tris pH 7.5; 3- to 4-fold increase over non-G4 controls
[16] = 1 mM Tris, G4:ATP 1:5 mixed, also with ThT
[17] = G4:ATP:ThT 1:5:5 mixed, ternary complex with ATP

Row | Kd [1] [nM] | Kd [2] [nM] | binding [3, 16] | Kd [4] [nM] | Kd [5] [nM] | Kd [6] [nM] | Kd [7] [nM] | binding [8, 16] | binding [9, 16] | binding [10] | binding [11] | Kd [12] [nM] | binding [13] | binding [3, 17] | binding [8, 17] | binding [9, 17] | binding [14] | binding [15] | SMILES
1 | 170 | 150 | yes | 40 | 830 | 620 | 42 | yes | yes | no | no | 71 | – | – | – | – | – | – | Nc1ncnc2c1ncn2[C@@H]1O[C@H](COP(=O)(O)OP(=O)(O)OP(=O)(O)O)[C@@H](O)[C@H]1O
2 | – | – | – | – | – | – | – | – | – | – | – | – | yes | yes | yes | yes | yes | yes | Cc1ccc2c(c1)sc(-c1ccc(N(C)C)cc1)[n+]2C
